Patent publication US11472791B2 (Incyte Corporation, priority 2019, dated 2022)

Molecular target: CDK2/Cyclin E1 (Homo sapiens (Human), UniProt P24941)
Assay: CDK2/Cyclin E1 HTRF enzyme activity assay
Format: biochemical
Details: 1 mM ATP
Experimental: Assays are conducted in white 384-well polystyrene plates in a final reaction volume of 8 μL. […] HTRF signals are read after 1 hour at room temperature on a PHERAstar FS plate reader (BMG Labtech). Data is analyzed with IDBS XLFit and GraphPad Prism 5.0 software using a three or four parameter dose response curve to determine IC50 for each compound.

IC50, < 50 nM:
CCNCc1ccc(-n2cc(-c3nc(N[C@H]4CCN(S(=O)(=O)c5cn(C)cn5)C[C@H]4C)ncc3C(F)(F)F)cn2)c(C)n1 [Example 271, 4-(1-(6-((Ethylamino)methyl)-2-methylpyridin-3-yl)-1H-pyrazol-4-yl)-N-((3R,4S)-3-methyl-1-((1-methyl-1H-imidazol-4-yl)sulfonyl)piperidin-4-yl)-5-(trifluoromethyl)pyrimidin-2-amine]
CNCc1ccc(-n2cc(-c3nc(N[C@H]4CCN(S(=O)(=O)c5cn(C)cn5)C[C@H]4C)ncc3C#N)cn2)c(C)n1 [Example 272, 2-(((3R,4S)-3-Methyl-1-((1-methyl-1H-imidazol-4-yl)sulfonyl)piperidin-4-yl)amino)-4-(1-(2-methyl-6-((methylamino)methyl)pyridin-3-yl)-1H-pyrazol-4-yl)pyrimidine-5-carbonitrile]
CCNCc1ccc(-n2cc(-c3nc(N[C@H]4CCN(S(=O)(=O)c5cn(C)cn5)C[C@H]4C)ncc3C#N)cn2)c(C)n1 [Example 273, 4-(1-(6-((Ethylamino)methyl)-2-methylpyridin-3-yl)-1H-pyrazol-4-yl)-2-(((3R,4S)-3-methyl-1-((1-methyl-1H-imidazol-4-yl)sulfonyl)piperidin-4-yl)amino)pyrimidine-5-carbonitrile]
Cc1nc(CNC(C)C)ccc1-n1cc(-c2nc(NC3CCN(S(=O)(=O)c4cn(C)cn4)CC3)ncc2Cl)cn1 [Example 274, 5-Chloro-4-(1-(6-((isopropylamino)methyl)-2-methylpyridin-3-yl)-1H-pyrazol-4-yl)-N-(1-((1-methyl-1H-imidazol-4-yl)sulfonyl)piperidin-4-yl)pyrimidin-2-amine]
Cc1nc(CNC(C)C)ccc1-n1cc(-c2nc(NC3CCN(S(=O)(=O)c4cn(C)cn4)CC3)ncc2C(F)(F)F)cn1 [Example 275, 4-(1-(6-((Isopropylamino)methyl)-2-methylpyridin-3-yl)-1H-pyrazol-4-yl)-N-(1-((1-methyl-1H-imidazol-4-yl)sulfonyl)piperidin-4-yl)-5-(trifluoromethyl)pyrimidin-2-amine]
Cc1nc(CNC(C)C)ccc1-n1cc(-c2nc(N[C@H]3CCN(S(=O)(=O)c4cn(C)cn4)C[C@H]3C)ncc2C(F)(F)F)cn1 [Example 276, 4-(1-(6-((Isopropylamino)methyl)-2-methylpyridin-3-yl)-1H-pyrazol-4-yl)-N-((3R,4S)-3-methyl-1-((1-methyl-1H-imidazol-4-yl)sulfonyl)piperidin-4-yl)-5-(trifluoromethyl)pyrimidin-2-amine]
Cc1nc(CNC(C)(C)C)ccc1-n1cc(-c2nc(NC3CCN(S(=O)(=O)C4CC4)CC3)ncc2C#N)cn1 [Example 277, 4-(1-(6-((tert-Butylamino)methyl)-2-methylpyridin-3-yl)-1H-pyrazol-4-yl)-2-((1-(cyclopropylsulfonyl)piperidin-4-yl)amino)pyrimidine-5-carbonitrile]
Cc1nc(CNC(C)C)ccc1-n1cc(-c2nc(N[C@H]3CCN(S(=O)(=O)c4cn(C)cn4)C[C@H]3C)ncc2C#N)cn1 [Example 278, 4-(1-(6-((Isopropylamino)methyl)-2-methylpyridin-3-yl)-1H-pyrazol-4-yl)-2-(((3R,4S)-3-methyl-1-((1-methyl-1H-imidazol-4-yl)sulfonyl)piperidin-4-yl)amino)pyrimidine-5-carbonitrile]
COC(=O)N[C@@H]1CC[C@@H](NCc2ccc(-n3cc(-c4nc(NC5CCN(S(C)(=O)=O)CC5)ncc4C#N)cn3)c(Cl)c2)C1 [Example 279, Methyl ((1R,3R)-3-((3-chloro-4-(4-(5-cyano-2-((1-(methylsulfonyl)piperidin-4-yl)amino)pyrimidin-4-yl)-1H-pyrazol-1-yl)benzyl)amino)cyclopentyl)carbamate]
COC(=O)N[C@H]1CC[C@@H](NCc2ccc(-n3cc(-c4nc(NC5CCN(S(C)(=O)=O)CC5)ncc4C#N)cn3)c(Cl)c2)C1 [Example 280, Methyl ((1S,3R)-3-((3-chloro-4-(4-(5-cyano-2-((1-(methylsulfonyl)piperidin-4-yl)amino)pyrimidin-4-yl)-1H-pyrazol-1-yl)benzyl)amino)cyclopentyl)carbamate]
COC(=O)N[C@H]1CCC[C@@H]1NCc1ccc(-n2cc(-c3nc(NC4CCN(S(C)(=O)=O)CC4)ncc3C#N)cn2)c(Cl)c1 [Example 281, Methyl ((1,S,2S)-2-((3-chloro-4-(4-(5-cyano-2-((1-(methylsulfonyl)piperidin-4-yl)amino)pyrimidin-4-yl)-1H-pyrazol-1-yl)benzyl)amino)cyclopentyl)carbamate]
COC(=O)NCC1(NCc2ccc(-n3cc(-c4nc(NC5CCN(S(C)(=O)=O)CC5)ncc4C#N)cn3)c(Cl)c2)CCCC1 [Example 282, Methyl ((1-((3-chloro-4-(4-(5-cyano-2-((1-(methylsulfonyl)piperidin-4-yl)amino)pyrimidin-4-yl)-1H-pyrazol-1-yl)benzyl)amino)cyclopentyl)methyl)carbamate]
C[C@]1(O)CC[C@@H](NCc2ccc(-n3cc(-c4nc(NC5CCN(S(=O)(=O)C6CC6)CC5)ncc4C#N)cn3)c(Cl)c2)CC1 [Example 283, 4-(1-(2-Chloro-4-((((1s,4s)-4-hydroxy-4-methylcyclohexyl)amino)methyl)phenyl)-1H-pyrazol-4-yl)-2-((1-(cyclopropylsulfonyl)piperidin-4-yl)amino)pyrimidine-5-carbonitrile]
C[C@]1(O)CC[C@H](NCc2ccc(-n3cc(-c4nc(NC5CCN(S(=O)(=O)C6CC6)CC5)ncc4C#N)cn3)c(Cl)c2)CC1 [Example 284, 4-(1-(2-Chloro-4-((((1r,4r)-4-hydroxy-4-methylcyclohexyl)amino)methyl)phenyl)-1H-pyrazol-4-yl)-2-((1-(cyclopropylsulfonyl)piperidin-4-yl)amino)pyrimidine-5-carbonitrile]
C[C@]1(O)C[C@@H](NCc2ccc(-n3cc(-c4nc(NC5CCN(S(=O)(=O)C6CC6)CC5)ncc4C#N)cn3)c(Cl)c2)C1 [Example 285, 4-(1-(2-Chloro-4-((((1s,3s)-3-hydroxy-3-methylcyclobutyl)amino)methyl)phenyl)-1H-pyrazol-4-yl)-2-((1-(cyclopropylsulfonyl)piperidin-4-yl)amino)pyrimidine-5-carbonitrile]
C[C@]1(O)C[C@H](NCc2ccc(-n3cc(-c4nc(NC5CCN(S(=O)(=O)C6CC6)CC5)ncc4C#N)cn3)c(Cl)c2)C1 [Example 286, 4-(1-(2-Chloro-4-((((1r,3r)-3-hydroxy-3-methylcyclobutyl)amino)methyl)phenyl)-1H-pyrazol-4-yl)-2-((1-(cyclopropylsulfonyl)piperidin-4-yl)amino)pyrimidine-5-carbonitrile]
CS(=O)(=O)N1CCC(Nc2ncc(C#N)c(-c3cnn(-c4ccc(CN[C@@H]5CCCC[C@H]5CO)cc4Cl)c3)n2)CC1 [Example 288]
CS(=O)(=O)N1CCC(Nc2ncc(C#N)c(-c3cnn(-c4ccc(CN[C@H]5CC[C@@H](CO)CC5)cc4Cl)c3)n2)CC1 [Example 289, 4-(1-(2-chloro-4-((((1s,4s)-4-(hydroxymethyl)cyclohexyl)amino)methyl)phenyl)-1H-pyrazol-4-yl)-2-((1-(methylsulfonyl)piperidin-4-yl)amino)pyrimidine-5-carbonitrile]
